{
  "source": "patent US12629406B2",
  "about": "“Alterations in endothelin receptors following hemorrhage and resuscitation by centhaquin” (MIDWESTERN UNIVERSITY, priority 2018, dated 2026)",
  "format_in_all_cases": "in vivo, rat",
  "key": {"[1]": {"system": "TNF-α", "assay": "Plasma TNF-α in hemorrhaged rats (ELISA)", "conditions": "p<0.01", "method": "(§1) Induction of Hemorrhagic Shock. Hemorrhage was induced by withdrawing blood from the femoral artery at a rate of approximately 0.5 to 1 mL/min until a MAP of 35 mmHg was reached. This MAP was maintained for 30 min by further withdrawal of blood, if necessary. The hemorrhagic shock model used in the present study is a well-established rodent model of manageable pressure hemorrhage (Buehler et al. 2000; Gulati et al. 1997a; Gulati and Sen 1998). The volume of blood loss was about approximately 8.0 ml in each rat and was similar in various groups, amounting to approximately 40% of the total blood. Measured hematocrit levels were similar in various groups. The duration of blood withdrawal was approximately 15 minutes.\n(§2) Experimental design. […] The blood samples, for biochemical estimations, were collected at 30 minutes of resuscitation and cardiovascular parameters were monitored till 60 minutes after which the animal was sacrificed. […]"}, "[2]": {"system": "IL-6", "assay": "Plasma IL-6 in hemorrhaged rats (ELISA)", "conditions": "p<0.01", "method": "as §1, §2"}, "[3]": {"system": "ETA receptors", "assay": "ETA receptor expression in tissues of hemorrhaged rats (western blot)", "conditions": "for change in ETA receptor expression, abdominal aorta: compared to hemorrhaged rats with no treatment; for change in ETA receptor expression, renal medulla: compared to hemorrhagic shock", "method": "as §1\nExperimental design. To determine the resuscitative effect of centhaquin on cardiovascular system and plasma cytokines in hemorrhagic shock, rats were randomly divided into five groups, Group 1: Sham control (Non-hemorrhaged) (n=5), Group 2: Hemorrhage with no resuscitation (n=5); Group 3: Hemorrhage followed by resuscitation with 3% hypertonic saline (vehicle) (n=5); Group 4: Hemorrhage followed by resuscitation with vehicle plus centhaquin (0.017 mg/kg) (n=5); and Group 5: Hemorrhage followed by resuscitation with vehicle plus centhaquin (0.05 mg/kg) (n=5). Resuscitation was started 30 min after induction of hemorrhagic shock as an intravenous infusion (1 mL/min) through femoral vein using an infusion pump (Harvard Apparatus Infusion/Withdrawal Pump, Millis, MA). The blood samples, for biochemical estimations, were collected at 30 minutes of resuscitation and cardiovascular parameters were monitored till 60 minutes after which the animal was sacrificed. The volume of resuscitative solution was kept equal to the volume of blood loss.\nEstimation of ETA and ETB receptor expression. Expression of ETA and ETB receptors was determined using the western blotting technique (Briyal et al. 2015; Leonard and Gulati 2013) with some modifications. After completion of cardiovascular experiments animals were sacrificed and the organs (brain, heart, liver, lung, kidney and abdominal aorta) were immediately dissected out, flash frozen on dry ice, and stored at −80° C. for further analysis. The tissue was homogenized with 10×(w/v) RIPA lysis buffer (20 mM Tris-HCl pH 7.5, 120 mM NaCl, 1.0% TritonX-100, 1.0% sodium deoxycholate, 0.1% sodium dodecyl sulfate (SDS), 10% glycerol, 1 mM disodium ethylene diamine tetraacetic acid (EDTA), 1 mM ethylene glycol-bis(β-aminoethyl ether)-N,N,N′,N′-tetraacetic acid tetrasodium salt (EGTA), phosphatase inhibitors and Complete Mini Protease inhibitor cocktail tablet (Roche Diagnostics, Indianapolis, IN). Proteins were isolated in solubilized form and concentrations were measured by Folin-Ciocalteu's phenol reagent (Lowry et al. 1951). Solubilized protein (60 μg) was denatured in Laemmli sample buffer (Bio-Rad Laboratories, Hercules, CA), resolved on 10% sodium dodecyl sulfate-polyacrylamide gel electrophoresis (SDS-PAGE) and then transferred onto the nitrocellulose membrane followed by blocking the membrane with SuperBlock® Blocking Buffer in tris-buffered saline (TBS) (ThermoFisher Scientific, Hanover Park, IL). The membranes were washed three times with 1×TBS-Tween (TBST) and incubated with rabbit polyclonal anti-ETA receptor (ab85163, Abcam, Cambridge, MA, 1:1000) or anti-ETB receptor (ab117529, Abcam, Cambridge, MA, 1:1000) or mouse monoclonal anti-β-actin (a1978, Sigma-Aldrich, St. Louis, MO) antibodies, followed by horseradish peroxidase (HRP)-conjugated secondary antibodies goat anti-rabbit (sc2004, Santa Cruz Biotechnology, Dallas, TX, 1:2000) or goat anti-mouse (ab98693, Abcam, Cambridge, MA, 1:10,000) and visualized by SuperSignal® West Pico Chemiluminescent Substrate (ThermoFisher Scientific, Hanover Park, IL) using the ChemiDoc™ MP Imaging System (Bio-Rad Laboratories, Hercules, CA) and then analyzed using ImageJ (NIH) software."}},
  "data": [
    {"molecule": "Cc1cccc(N2CCN(CCc3ccc4ccccc4n3)CC2)c1", "note": "[centhaquin, 2-[2-(4-(3-methyphenyl)-1-piperazinyl)]ethyl-quinoline]", "values": [
      {"measurement": "plasma TNF-α level compared to hypertonic saline alone", "setting": "[1]", "result": "further increased"},
      {"measurement": "plasma IL-6 level compared to hypertonic saline alone", "setting": "[2]", "result": "further increased"},
      {"measurement": "change in ETA receptor expression, abdominal aorta", "setting": "[3]; centhaquin 0.017 mg/kg", "result": "−47.6", "unit": "%"},
      {"measurement": "change in ETA receptor expression, renal medulla", "setting": "[3]; centhaquin 0.017 mg/kg", "result": "−61.3", "unit": "%"},
      {"measurement": "change in ETA receptor expression, abdominal aorta", "setting": "[3]; centhaquin 0.05 mg/kg", "result": "−49.2", "unit": "%"},
      {"measurement": "change in ETA receptor expression, renal medulla", "setting": "[3]; centhaquin 0.05 mg/kg", "result": "−70.5", "unit": "%"},
      {"measurement": "change in ETA expression, renal medulla (summary)", "setting": "[3]; dose not given", "result": "−61", "unit": "%"},
      {"measurement": "ETA receptor expression in brain, heart, liver, lungs and kidney cortex", "setting": "[3]; hemorrhage and resuscitation", "result": "no change"},
      {"measurement": "shock-induced increase (140%) in ETA expression, abdominal aorta", "setting": "[3]; summary, also attenuated by saline", "result": "attenuated"}
    ]}
  ]
}
